From patent US9617258B2, “Pyrrolo[2,3-d]pyrimidinyl, pyrrolo[2,3-b]pyrazinyl and pyrrolo[2,3-d]pyridinyl acrylamides” (Pfizer Inc., priority 2013, dated 2017)

Test: Stability of JAK3 covalent inhibitors in human whole blood;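 also: parent compound remaining over incubation time quantified by LC-MS/MS as peak area ratio against an internal standard, using pooled K2-EDTA blood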
Format: in vitro ADME
Conditions: both sexes, whole blood, 37° C., read-out: Human blood stability t1/2
Description: Stability of JAK3 Covalent Inhibitors in Rat and Human Whole Blood
Rat blood was collected from 3 male Sprague-Dawley rats (200-250 g, Charles River Laboratories) and pooled for each study. Human blood was collected from one male and one female healthy subjects at the Occupational Health & Wellness Center at Pfizer, Groton, CT and pooled for each study. Both rat and human blood was collected freshly into K2-EDTA tubes and kept on ice. An aliquot of the blood was transferred to microtubes and pre-warmed for 10 min at 37° C. using a heat block. […] An aliquot of the incubation mixture was removed at designated time points during the course of the incubation, mixed with an aliquot of acetonitrile containing an internal standard, vortexed and centrifuged. The resulting supernatants were removed and subjected to LC-MS/MS analyses to determine parent compound concentrations. Peak area ratios of the parent compound vs the internal standard were used to determine the % of parent compound remaining vs incubation time.

half-life at 1 μM [h]	SMILES
> 6	C=CC(=O)N1CCC[C@@H](Nc2ncnc3[nH]cc(-c4cncc(F)c4)c23)C1 [Example 23, 1-[(3R)-3-{[5-(5-fluoropyridin-3-yl)-7H-pyrrolo[2,3-d]pyrimidin-4-yl]amino}piperidin-1-yl]prop-2-en-1-one]
3.67	C=CC(=O)N1CCC(Nc2cnc3[nH]cc(C(=O)NC(C)C4CC4)c3n2)CC1 (centres unmarked) [Example 288, 2-[(1-acryloylpiperidin-4-yl)amino]-N-(1-cyclopropylethyl)-5H-pyrrolo[2,3-b]pyrazine-7-carboxamide]
> 6	C=CC(=O)N1CCC(Nc2cnc3[nH]cc(-c4cnc(OC)nc4)c3n2)CC1 [Example 210, 1-(4-{[7-(2-methoxypyrimidin-5-yl)-5H-pyrrolo[2,3-b]pyrazin-2-yl]amino}piperidin-1-yl)prop-2-en-1-one]
> 6	C=CC(=O)N1CCC[C@@H](Nc2ncnc3[nH]cc(C#N)c23)C1 [Example 45, 4-{[(3R)-1-acryloylpiperidin-3-yl]amino}-7H-pyrrolo[2,3-d]pyrimidine-5-carbonitrile]
3.17	C=CC(=O)N1CC[C@@H](Nc2cnc3[nH]cc(C(=O)NC(C)C)c3n2)[C@@H](F)C1 [Example 320, 2-{[(3S,4R)-1-acryloyl-3-fluoropiperidin-4-yl]amino}-N-(propan-2-yl)-5H-pyrrolo[2,3-b]pyrazine-7-carboxamide]
4.33	C=CC(=O)N1CCC(Nc2cnc3[nH]cc(C(=O)NCC4CC(F)(F)C4)c3n2)CC1 [Example 238, 2-[(1-acryloylpiperidin-4-yl)amino]-N-[(3,3-difluorocyclobutyl)methyl]-5H-pyrrolo[2,3-b]pyrazine-7-carboxamide]
> 6	C=CC(=O)N1C[C@@H]2C(Nc3cnc4[nH]cc(C(=O)NC(C)C)c4n3)[C@@H]2C1 (stereo partly drawn) [Example 189, 2-{[(1R,5S,6s)-3-acryloyl-3-azabicyclo[3.1.0]hex-6-yl]amino}-N-(propan-2-yl)-5H-pyrrolo[2,3-b]pyrazine-7-carboxamide]
> 6	C=CC(=O)N1C[C@H](O)C[C@@H](Nc2ncnc3[nH]ccc23)C1 [Example 60, 1-((3R,5R)-3-((7H-Pyrrolo[2,3-d]pyrimidin-4-yl)amino)-5-hydroxypiperidin-1-yl)prop-2-en-1-one]
2.77	C=CC(=O)N1CCC[C@@H](Nc2ncnc3[nH]cc(CC)c23)C1 [Example 44, 1-{(3R)-3-[(5-ethyl-7H-pyrrolo[2,3-d]pyrimidin-4-yl)amino]piperidin-1-yl}prop-2-en-1-one]
2.03	C=CC(=O)N1CCN(c2cnc3[nH]cc(C(=O)NC(C)C)c3n2)[C@H](C)C1 [Example 307, 2-[(2R)-4-acryloyl-2-methylpiperazin-1-yl]-N-(propan-2-yl)-5H-pyrrolo[2,3-b]pyrazine-7-carboxamide]
> 6	C=CC(=O)N1CC(Nc2ncnc3[nH]ccc23)CCC1(C)C (centres unmarked) [Example 67, 1-(5-((7H-Pyrrolo[2,3-d]pyrimidin-4-yl)amino)-2,2-dimethylpiperidin-1-yl)prop-2-en-1-one]
4.53	C=CC(=O)N1CCC(Nc2cnc3[nH]cc(C(=O)N[C@H]4CC[C@H](F)C4)c3n2)CC1 [Example 247, 2-[(1-acryloylpiperidin-4-yl)amino]-N-[(1S,3S)-3-fluorocyclopentyl]-5H-pyrrolo[2,3-b]pyrazine-7-carboxamide]
> 6	C=CC(=O)N1CCC[C@@H](Nc2ncnc3[nH]cc(-c4ccc(N5CCOCC5)nc4)c23)C1 [Example 36, 1-[(3R)-3-({5-[6-(morpholin-4-yl)pyridin-3-yl]-7H-pyrrolo[2,3-d]pyrimidin-4-yl}amino)piperidin-1-yl]prop-2-en-1-one]
3.15	C=CC(=O)N1CCN(c2cnc3[nH]cc(C(=O)NC(C)C)c3n2)C[C@@H]1C [Example 295, 2-[(3S)-4-acryloyl-3-methylpiperazin-1-yl]-N-(propan-2-yl)-5H-pyrrolo[2,3-b]pyrazine-7-carboxamide]
> 5.53	C=CC(=O)N1CCC[C@@H](Nc2ncnc3[nH]ccc23)C1 [Example 12, (R)-1-(3-((7H-Pyrrolo[2,3-d]pyrimidin-4-yl)amino)piperidin-1-yl)prop-2-en-1-one]
> 6	C=CC(=O)N1CC[C@@H](Nc2cnc3[nH]cc(C(=O)NC(C)(C)C)c3n2)C[C@H]1C [Example 342, 2-(((2R,4R)-1-Acryloyl-2-methylpiperidin-4-yl)amino)-N-(tert-butyl)-5H-pyrrolo[2,3-b]pyrazine-7-carboxamide]
4.05	C=CC(=O)N1CCC(Nc2cnc3[nH]cc(C(=O)NCC(C)(F)F)c3n2)CC1 [Example 282, 2-[(1-acryloylpiperidin-4-yl)amino]-N-(2,2-difluoropropyl)-5H-pyrrolo[2,3-b]pyrazine-7-carboxamide]
4.27	C=CC(=O)N1CCC(Nc2cnc3[nH]cc(C(=O)NCCCC)c3n2)CC1 [Example 269, 2-[(1-acryloylpiperidin-4-yl)amino]-N-butyl-5H-pyrrolo[2,3-b]pyrazine-7-carboxamide]
0.767	C=CC(=O)N1CCC[C@@H](Nc2ncnc3[nH]cc(-c4ccc(C(=O)N(C)C)cc4)c23)C1 [Example 27, 4-(4-{[(3R)-1-acryloylpiperidin-3-yl]amino}-7H-pyrrolo[2,3-d]pyrimidin-5-yl)-N,N-dimethylbenzamide]
> 6	C=CC(=O)N1CC[C@@H](CNc2cnc3[nH]cc(C(=O)NC(C)C)c3n2)C1 [Example 191, 2-({[(3S)-1-acryloylpyrrolidin-3-yl]methyl}amino)-(N-propan-2-yl)-5H-pyrrolo[2,3-b]pyrazine-7-carboxamide]
> 6	C=CC(=O)N1CCC(Nc2cnc3[nH]cc(C(=O)NC4CCCC4)c3n2)CC1 [Example 283, 2-[(1-acryloylpiperidin-4-yl)amino]-N-cyclopentyl-5H-pyrrolo[2,3-b]pyrazine-7-carboxamide]
1.72	C=CC(=O)N1C[C@H](C)C[C@@H](Nc2ncnc3[nH]ccc23)C1 [Example 74, 1-[(3R,5R)-3-Methyl-5-(7H-pyrrolo[2,3-d]pyrimidin-4-ylamino)piperidin-1-yl]prop-2-en-1-one]
5.95	C=CC(=O)N1CC[C@@H](Nc2cnc3[nH]cc(C(=O)NC(C)C)c3n2)[C@H](OC)C1 [Example 305, 2-{[(3R,4R)-1-acryloyl-3-methoxypiperidin-4-yl]amino}-N-(propan-2-yl)-5H-pyrrolo[2,3-b]pyrazine-7-carboxamide]
4.8	C=CC(=O)N1CCC(Nc2cnc3[nH]cc(C(=O)N[C@H](C)COC)c3n2)CC1 [Example 268, 2-[(1-acryloylpiperidin-4-yl)amino]-N-[(2R)-1-methoxypropan-2-yl]-5H-pyrrolo[2,3-b]pyrazine-7-carboxamide]
3.62	C=CC(=O)N1CCC(Nc2cnc3[nH]cc(C(=O)NCC(C)C)c3n2)CC1 [Example 272, 2-[(1-acryloylpiperidin-4-yl)amino]-N-(2-methylpropyl)-5H-pyrrolo[2,3-b]pyrazine-7-carboxamide]
> 6	C=CC(=O)N1CCC(Nc2cnc3[nH]cc(C(=O)NCCOC)c3n2)CC1 [Example 275, 2-[(1-acryloylpiperidin-4-yl)amino]-N-(2-methoxyethyl)-5H-pyrrolo[2,3-b]pyrazine-7-carboxamide]
